Calls of active or inactive are those of the source. No cut-off for these calls is given here.
What was measured:
[1] = target: Tyrosine-protein kinase ABL1 (Mus musculus, UniProt P00520); test: Inhibition of N-terminal His6-tagged recombinant mouse ABL (27 to 1123 residues) expressed in insect Sf21 cells using poly(Glu,Tyr)4:1 as substrate incubated for 60 mins by ELISA
cells [2] = conditions: Homo sapiens, KARPAS-299, 72 h
Description: Antiproliferative activity against human KARPAS299 cells after 72 hrs by SRB/CCK-8 assay

[3] = target: Hepatocyte growth factor receptor (Homo sapiens, UniProt P08581); test: Inhibition of N-terminal His6-tagged recombinant human c-Met (974 residues) expressed in insect Sf21 cells using poly(Glu,Tyr)4:1 as substrate incubated for 60 mins by ELISA
Hepatocyte growth factor receptor, sequence (P08581 whole entry): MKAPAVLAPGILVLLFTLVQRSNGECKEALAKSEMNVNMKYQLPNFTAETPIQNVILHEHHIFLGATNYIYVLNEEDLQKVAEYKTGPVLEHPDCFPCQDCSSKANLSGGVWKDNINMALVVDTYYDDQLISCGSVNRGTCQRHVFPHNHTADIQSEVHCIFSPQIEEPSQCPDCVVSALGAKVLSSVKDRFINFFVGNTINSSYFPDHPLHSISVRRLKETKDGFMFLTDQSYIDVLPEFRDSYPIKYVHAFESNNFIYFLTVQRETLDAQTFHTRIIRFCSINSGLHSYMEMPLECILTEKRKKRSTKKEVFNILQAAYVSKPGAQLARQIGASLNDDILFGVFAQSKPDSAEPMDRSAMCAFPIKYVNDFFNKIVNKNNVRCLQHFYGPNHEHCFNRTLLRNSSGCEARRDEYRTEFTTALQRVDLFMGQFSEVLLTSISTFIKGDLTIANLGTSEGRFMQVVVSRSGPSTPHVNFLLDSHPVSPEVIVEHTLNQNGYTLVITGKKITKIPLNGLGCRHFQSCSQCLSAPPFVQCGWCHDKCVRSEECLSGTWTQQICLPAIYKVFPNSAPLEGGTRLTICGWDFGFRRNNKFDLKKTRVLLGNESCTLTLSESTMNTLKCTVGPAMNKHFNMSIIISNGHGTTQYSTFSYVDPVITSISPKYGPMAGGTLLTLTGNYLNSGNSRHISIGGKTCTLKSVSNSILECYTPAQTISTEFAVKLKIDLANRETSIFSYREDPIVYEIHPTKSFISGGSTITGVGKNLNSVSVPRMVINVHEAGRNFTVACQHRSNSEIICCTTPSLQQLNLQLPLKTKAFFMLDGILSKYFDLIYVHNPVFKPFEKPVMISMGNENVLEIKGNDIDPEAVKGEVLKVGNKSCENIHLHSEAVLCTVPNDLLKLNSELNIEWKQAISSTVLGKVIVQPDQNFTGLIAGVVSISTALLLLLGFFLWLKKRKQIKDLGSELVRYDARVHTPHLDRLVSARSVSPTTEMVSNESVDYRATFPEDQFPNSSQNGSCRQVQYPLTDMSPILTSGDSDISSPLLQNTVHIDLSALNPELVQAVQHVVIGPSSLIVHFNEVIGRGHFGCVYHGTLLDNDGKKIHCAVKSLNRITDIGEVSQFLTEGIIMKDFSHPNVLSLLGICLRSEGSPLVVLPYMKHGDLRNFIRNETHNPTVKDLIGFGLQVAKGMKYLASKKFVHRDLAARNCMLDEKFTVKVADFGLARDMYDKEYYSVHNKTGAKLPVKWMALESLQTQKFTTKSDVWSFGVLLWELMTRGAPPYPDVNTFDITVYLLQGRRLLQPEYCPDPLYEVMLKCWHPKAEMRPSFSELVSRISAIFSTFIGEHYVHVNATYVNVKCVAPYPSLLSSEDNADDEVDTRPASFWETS

[4] = Antitumor activity against mouse NIH/3T3 cells expressing wild type EML4-ALK xenografted in nude mouse assessed as tumor growth inhibition at 40 mg/kg, po qd administered for 10 days; assay type: functional; conditions: NIH3T3, po, 240 h, read-out: TGI
[5] = target: T1, Proto-oncogene tyrosine-protein kinase receptor Ret (Homo sapiens, UniProt P07949); test: biochemical
T1 sequence (P07949 whole entry): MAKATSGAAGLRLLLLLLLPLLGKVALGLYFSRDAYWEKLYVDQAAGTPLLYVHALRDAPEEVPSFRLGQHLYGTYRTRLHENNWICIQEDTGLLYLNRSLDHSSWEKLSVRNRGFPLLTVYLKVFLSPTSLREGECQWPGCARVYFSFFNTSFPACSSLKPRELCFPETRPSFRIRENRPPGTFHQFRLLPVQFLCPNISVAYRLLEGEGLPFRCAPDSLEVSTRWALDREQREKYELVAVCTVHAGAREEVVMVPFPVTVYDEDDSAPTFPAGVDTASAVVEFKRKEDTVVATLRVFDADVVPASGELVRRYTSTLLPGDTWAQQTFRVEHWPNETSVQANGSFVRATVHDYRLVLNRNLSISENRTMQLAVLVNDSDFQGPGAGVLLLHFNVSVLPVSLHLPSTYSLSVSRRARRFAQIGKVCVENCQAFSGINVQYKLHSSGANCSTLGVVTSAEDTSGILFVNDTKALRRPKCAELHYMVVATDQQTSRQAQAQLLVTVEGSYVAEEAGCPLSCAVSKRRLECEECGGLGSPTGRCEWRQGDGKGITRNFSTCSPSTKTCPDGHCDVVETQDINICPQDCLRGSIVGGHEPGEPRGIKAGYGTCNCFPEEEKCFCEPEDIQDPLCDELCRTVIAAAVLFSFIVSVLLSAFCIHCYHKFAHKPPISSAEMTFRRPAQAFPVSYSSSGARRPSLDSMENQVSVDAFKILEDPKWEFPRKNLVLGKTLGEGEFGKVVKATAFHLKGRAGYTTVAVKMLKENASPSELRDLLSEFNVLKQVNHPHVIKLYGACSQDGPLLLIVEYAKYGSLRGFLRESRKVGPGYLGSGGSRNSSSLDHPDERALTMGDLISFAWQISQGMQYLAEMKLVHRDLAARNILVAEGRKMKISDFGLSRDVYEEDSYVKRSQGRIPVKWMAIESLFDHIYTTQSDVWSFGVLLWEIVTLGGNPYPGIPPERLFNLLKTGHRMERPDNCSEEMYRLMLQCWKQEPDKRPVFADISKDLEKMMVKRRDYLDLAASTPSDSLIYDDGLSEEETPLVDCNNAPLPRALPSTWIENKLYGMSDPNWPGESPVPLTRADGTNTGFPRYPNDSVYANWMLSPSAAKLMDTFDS

[6] = target: Leukocyte tyrosine kinase receptor (Homo sapiens, UniProt P29376); test: Inhibition of recombinant LTK (unknown origin) using poly(Glu,Tyr)4:1 as substrate incubated for 60 mins by ELISA
Leukocyte tyrosine kinase receptor, sequence (P29376 whole entry): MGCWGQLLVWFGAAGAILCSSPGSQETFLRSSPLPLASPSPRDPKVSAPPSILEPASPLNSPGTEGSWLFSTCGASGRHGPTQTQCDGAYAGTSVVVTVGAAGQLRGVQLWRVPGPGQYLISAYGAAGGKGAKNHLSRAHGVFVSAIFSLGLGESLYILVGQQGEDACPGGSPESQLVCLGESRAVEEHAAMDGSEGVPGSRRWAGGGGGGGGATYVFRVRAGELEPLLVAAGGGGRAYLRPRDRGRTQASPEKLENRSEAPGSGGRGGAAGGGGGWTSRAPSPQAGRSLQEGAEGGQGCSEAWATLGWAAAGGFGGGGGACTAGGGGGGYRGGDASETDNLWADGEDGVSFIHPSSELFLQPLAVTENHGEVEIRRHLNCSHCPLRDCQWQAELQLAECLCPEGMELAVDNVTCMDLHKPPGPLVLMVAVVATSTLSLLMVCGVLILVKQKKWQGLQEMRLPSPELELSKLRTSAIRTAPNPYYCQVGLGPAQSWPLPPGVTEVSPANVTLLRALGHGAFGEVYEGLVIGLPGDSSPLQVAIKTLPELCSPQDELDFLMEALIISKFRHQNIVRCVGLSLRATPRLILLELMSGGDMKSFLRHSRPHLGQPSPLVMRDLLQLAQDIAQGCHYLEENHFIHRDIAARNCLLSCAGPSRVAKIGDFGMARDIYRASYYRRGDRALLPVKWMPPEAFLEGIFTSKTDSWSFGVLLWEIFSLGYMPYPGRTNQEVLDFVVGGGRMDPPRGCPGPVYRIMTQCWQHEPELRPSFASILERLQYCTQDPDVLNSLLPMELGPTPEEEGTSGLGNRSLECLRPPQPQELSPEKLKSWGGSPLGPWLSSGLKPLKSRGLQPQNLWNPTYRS

cells [7] = conditions: Mus musculus, NIH3T3, 72 h
Description: Antiproliferative activity against mouse NIH/3T3 cells expressing EML4-ALK L1196 mutant after 72 hrs by SRB/CCK-8 assay

[8] = target: T1, Proto-oncogene tyrosine-protein kinase receptor Ret; test: Inhibition of RET (unknown origin) in mouse BaF3/CCDC6-RET cells assessed as suppression of AKT phosphorylation at S473 residue after 1 hr by Western blot analysis; assay type: cell-based
[9] = target: Insulin-like growth factor 1 receptor (Homo sapiens, UniProt P08069); test: Inhibition of N-terminal His6-tagged recombinant human IGF-1R (959 residues) expressed in insect Sf21 cells using poly(Glu,Tyr)4:1 as substrate incubated for 60 mins by ELISA
cells [10] = conditions: Mus musculus, NIH3T3, 72 h; remark: listed apart in the source
Description: Antiproliferative activity against mouse NIH/3T3 cells expressing wild type EML4-ALK after 72 hrs by SRB/CCK-8 assay

[11] = Antitumor activity against mouse NIH/3T3 cells expressing EML4-ALK L1196M mutant xenografted in nude mouse assessed as tumor growth inhibition at 20 mg/kg, po qd administered for 10 days; assay type: functional; conditions: NIH3T3, po, 240 h, read-out: TGI
[12] = target: Vascular endothelial growth factor receptor 2 (Homo sapiens, UniProt P35968); test: Inhibition of N-terminal His6-tagged recombinant human KDR (790 residues) expressed in insect Sf21 cells using poly(Glu,Tyr)4:1 as substrate incubated for 60 mins by ELISA
[13] = target: Tyrosine-protein kinase receptor UFO (Homo sapiens, UniProt P30530); test: Inhibition of recombinant human AXL using poly(Glu,Tyr)4:1 as substrate incubated for 60 mins by ELISA
NIH3T3 [14] = test: Antitumor activity against mouse NIH/3T3 cells expressing EML4-ALK L1196M mutant xenografted in nude mouse assessed as tumor stasis at 40 mg/kg, po qd administered for 10 days; assay type: functional, organism-based
cells [15] = conditions: Homo sapiens, SU-DHL-1, 72 h
Description: Antiproliferative activity against human SU-DHL1 cells after 72 hrs by SRB/CCK-8 assay

[16] = target: T1, Proto-oncogene tyrosine-protein kinase receptor Ret; test: Inhibition of RET (unknown origin) in mouse BaF3/CCDC6-RET cells assessed as suppression of ERK1/2 phosphorylation at T202/Y204 residue after 1 hr by Western blot analysis; assay type: cell-based
[17] = target: Receptor-type tyrosine-protein kinase FLT3 (Homo sapiens, UniProt P36888); test: Inhibition of N-terminal GST-tagged recombinant human FLT3 (564 residues) expressed in insect Sf21 cells using poly(Glu,Tyr)4:1 as substrate incubated for 60 mins by ELISA
[18] = target: Macrophage-stimulating protein receptor (Homo sapiens, UniProt Q04912); test: Inhibition of N-terminal His6-tagged recombinant human Ron (983 residues) expressed in insect Sf21 cells using poly(Glu,Tyr)4:1 as substrate incubated for 60 mins by ELISA
Macrophage-stimulating protein receptor, sequence (Q04912 25-304 limits assumed): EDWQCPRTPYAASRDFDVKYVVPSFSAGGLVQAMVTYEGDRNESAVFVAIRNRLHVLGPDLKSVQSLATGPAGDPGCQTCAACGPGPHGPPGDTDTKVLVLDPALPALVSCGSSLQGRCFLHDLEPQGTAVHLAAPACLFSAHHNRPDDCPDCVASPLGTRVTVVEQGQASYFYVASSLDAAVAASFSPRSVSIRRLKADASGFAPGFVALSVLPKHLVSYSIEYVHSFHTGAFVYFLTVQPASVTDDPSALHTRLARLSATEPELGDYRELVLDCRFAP
Macrophage-stimulating protein receptor, sequence (Q04912 310-1400 limits assumed): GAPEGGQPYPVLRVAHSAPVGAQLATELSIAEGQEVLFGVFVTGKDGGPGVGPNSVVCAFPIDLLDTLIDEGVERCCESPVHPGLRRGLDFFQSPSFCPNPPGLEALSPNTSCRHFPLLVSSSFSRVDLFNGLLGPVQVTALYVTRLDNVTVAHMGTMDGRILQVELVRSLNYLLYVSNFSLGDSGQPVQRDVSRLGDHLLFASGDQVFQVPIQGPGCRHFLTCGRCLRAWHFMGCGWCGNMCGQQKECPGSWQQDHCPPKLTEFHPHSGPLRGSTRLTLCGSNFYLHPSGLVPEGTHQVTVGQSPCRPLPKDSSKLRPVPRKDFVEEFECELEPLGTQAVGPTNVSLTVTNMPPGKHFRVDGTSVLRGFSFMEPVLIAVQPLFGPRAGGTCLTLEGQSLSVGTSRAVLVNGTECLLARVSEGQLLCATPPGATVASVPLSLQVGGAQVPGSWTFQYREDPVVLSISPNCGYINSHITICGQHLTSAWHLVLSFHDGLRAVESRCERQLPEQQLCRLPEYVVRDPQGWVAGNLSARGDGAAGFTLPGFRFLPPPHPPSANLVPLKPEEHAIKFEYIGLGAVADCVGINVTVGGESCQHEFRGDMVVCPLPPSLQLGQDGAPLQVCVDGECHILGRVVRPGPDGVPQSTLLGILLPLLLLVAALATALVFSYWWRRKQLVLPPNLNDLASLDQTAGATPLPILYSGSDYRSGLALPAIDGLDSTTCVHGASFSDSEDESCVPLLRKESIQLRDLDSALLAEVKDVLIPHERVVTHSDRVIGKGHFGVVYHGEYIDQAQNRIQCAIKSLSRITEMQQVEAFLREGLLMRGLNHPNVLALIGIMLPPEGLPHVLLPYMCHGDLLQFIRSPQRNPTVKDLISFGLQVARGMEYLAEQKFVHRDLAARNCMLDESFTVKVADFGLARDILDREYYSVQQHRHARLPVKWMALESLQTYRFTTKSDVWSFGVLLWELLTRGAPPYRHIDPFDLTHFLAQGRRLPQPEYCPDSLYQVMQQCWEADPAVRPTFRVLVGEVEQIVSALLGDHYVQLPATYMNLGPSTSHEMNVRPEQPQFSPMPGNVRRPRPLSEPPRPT

[19] = target: Receptor tyrosine-protein kinase erbB-4 (Homo sapiens, UniProt Q15303); test: Inhibition of N-terminal His6-tagged recombinant human ErbB4 (709 to 991 residues) expressed in insect Sf21 cells using poly(Glu,Tyr)4:1 as substrate incubated for 60 mins by ELISA
[20] = target: Platelet-derived growth factor receptor beta (Homo sapiens, UniProt P09619); test: Inhibition of N-terminal His6-tagged recombinant human PDGFRbeta (557 residues) expressed in insect Sf21 cells using poly(Glu,Tyr)4:1 as substrate incubated for 60 mins by ELISA
[21] = target: Epidermal growth factor receptor (Homo sapiens, UniProt P00533, L858R/T790M); test: Inhibition of N-terminal GST-tagged recombinant human EGFR T790M/L858R double mutant (696 residues) expressed in insect Sf21 cells using poly(Glu,Tyr)4:1 as substrate incubated for 60 mins by ELISA
NIH3T3 [22] = test: Antitumor activity against mouse NIH/3T3 cells expressing EML4-ALK L1196M mutant xenografted in nude mouse assessed as partial tumor regression at 40 mg/kg, po qd administered for 10 days; assay type: functional, organism-based
[23] = target: Proto-oncogene tyrosine-protein kinase ROS (Homo sapiens, UniProt P08922); test: Inhibition of recombinant ROS1 (unknown origin) using poly(Glu,Tyr)4:1 as substrate incubated for 60 mins by ELISA
[24] = target: T1, Proto-oncogene tyrosine-protein kinase receptor Ret; test: Inhibition of RET (unknown origin) in mouse BaF3/CCDC6-RET cells assessed as suppression of STAT3 phosphorylation at Y705 residue after 1 hr by Western blot analysis; assay type: cell-based
[25] = target: Proto-oncogene tyrosine-protein kinase Src (Homo sapiens, UniProt P12931); test: Inhibition of recombinant human c-Src expressed in insect Sf9 cells using poly(Glu,Tyr)4:1 as substrate incubated for 60 mins by ELISA
cells [26] = conditions: Homo sapiens, SUP-M2, 72 h
Description: Antiproliferative activity against human SUP-M2 cells after 72 hrs by SRB/CCK-8 assay

[27] = Antitumor activity against mouse NIH/3T3 cells expressing wild type EML4-ALK xenografted in nude mouse assessed as tumor growth inhibition at 20 mg/kg, po qd administered for 10 days; assay type: functional; conditions: NIH3T3, po, 240 h, read-out: TGI
[28] = Antitumor activity against mouse NIH/3T3 cells expressing EML4-ALK L1196M mutant xenografted in nude mouse assessed as tumor growth inhibition at 40 mg/kg, po qd administered for 10 days; assay type: functional; conditions: NIH3T3, po, 240 h, read-out: TGI
cells [29] = conditions: Homo sapiens, NCI-H3122, 72 h
Description: Antiproliferative activity against human NCI-H3122 cells after 72 hrs by SRB/CCK-8 assay

NIH3T3 [30] = test: Antitumor activity against mouse NIH/3T3 cells expressing wild type EML4-ALK xenografted in nude mouse assessed as tumor stasis at 20 to 40 mg/kg, po qd administered for 10 days; assay type: functional, organism-based
[31] = target: Platelet-derived growth factor receptor alpha (Homo sapiens, UniProt P16234); test: Inhibition of N-terminal His6-tagged recombinant human PDGFRalpha (550 residues) expressed in insect Sf21 cells using poly(Glu,Tyr)4:1 as substrate incubated for 60 mins by ELISA
NIH3T3 [32] = test: Antitumor activity against mouse NIH/3T3 cells expressing wild type EML4-ALK xenografted in nude mouse assessed as partial tumor regression at 20 to 40 mg/kg, po qd administered for 10 days; assay type: functional, organism-based
[33] = target: T1, Proto-oncogene tyrosine-protein kinase receptor Ret; test: Inhibition of RET (unknown origin) phosphorylation at […] residue in mouse BaF3/CCDC6-RET cells after 1 hr by Western blot analysis; assay type: cell-based
[34] = target: Mast/stem cell growth factor receptor Kit (Homo sapiens, UniProt P10721); test: Inhibition of N-terminal GST-tagged recombinant human c-Kit (544 residues) expressed in insect Sf21 cells using poly(Glu,Tyr)4:1 as substrate incubated for 60 mins by ELISA
[35] = target: Tyrosine-protein kinase receptor TYRO3 (Homo sapiens, UniProt Q06418); test: Inhibition of N-terminal His6-tagged recombinant human TYRO3 (451 residues) expressed in insect Sf21 cells using poly(Glu,Tyr)4:1 as substrate incubated for 60 mins by ELISA
[36] = target: Receptor tyrosine-protein kinase erbB-2 (Homo sapiens, UniProt P04626); test: Inhibition of human ErbB2 using poly(Glu,Tyr)4:1 as substrate incubated for 60 mins by ELISA
Mus musculus = test: Toxicity in nude mouse assessed as weight loss at 20 to 40 mg/kg, po qd administered for 10 days; assay type: organism-based; conditions: in vivo, 240 h
[37] = target: Fibroblast growth factor receptor 1 (Homo sapiens, UniProt P11362); test: Inhibition of N-terminal GST-tagged recombinant human FGFR1 (456 to 765 residues) expressed in insect Sf21 cells using poly(Glu,Tyr)4:1 as substrate incubated for 60 mins by ELISA
[38] = target: Vascular endothelial growth factor receptor 1 (Homo sapiens, UniProt P17948); test: Inhibition of N-terminal GST-tagged recombinant human FLT1 (783 residues) expressed in insect Sf21 cells using poly(Glu,Tyr)4:1 as substrate incubated for 60 mins by ELISA
NIH3T3 [39] = test: Antitumor activity against mouse NIH/3T3 cells expressing EML4-ALK L1196M mutant xenografted in nude mouse assessed as partial tumor regression at 50 mg/kg, po qd administered for 10 days; assay type: functional, organism-based
NIH3T3 [40] = test: Antitumor activity against mouse NIH/3T3 cells expressing EML4-ALK L1196M mutant xenografted in nude mouse assessed as tumor stasis at 50 mg/kg, po qd administered for 10 days; assay type: functional, organism-based
animal or person [41] = conditions: Mus musculus, NIH3T3, po, 240 h, read-out: TGI
Description: Antitumor activity against mouse NIH/3T3 cells expressing EML4-ALK L1196M mutant xenografted in nude mouse assessed as tumor growth inhibition at 50 mg/kg, po qd administered for 10 days

animal or person [42] = conditions: Mus musculus, NIH3T3, po, 240 h, read-out: TGI; remark: listed apart in the source
Description: Antitumor activity against mouse NIH/3T3 cells expressing wild type EML4-ALK xenografted in nude mouse assessed as tumor growth inhibition at 50 mg/kg, po qd administered for 10 days

Work on `CC1(C)c2cc(C3CCN(CC4CCOCC4)CC3)ccc2C(=O)c2c1[nH]c1cc(C#N)ccc21` yielded an IC50 [1] greater than 1000 nM, an IC50 (cells [2]) of 44.8 nM and an IC50 [3] greater than 1000 nM. The inhibition in vivo at 40 mg/kg [4] was 102%, the IC50 [5] was 1.6 nM and the IC50 [6] was 43.1 nM. For the same molecule, the IC50 (cells [7]) was 196 nM, the inhibition [8] was “Dose-dependent effect” and the IC50 [9] was 27.8 nM. For the same molecule, the IC50 (cells [10]) was 46.7 nM, the inhibition in vivo at 20 mg/kg [11] was 56.9% and the IC50 [12] was 104 nM. The IC50 [13] was 170 nM, the Activity (NIH3T3 [14]) was “Active” and the IC50 (cells [15]) was 48.3 nM. For the same molecule, the inhibition [16] was “Dose-dependent effect”, the IC50 [17] was 85.7 nM and the IC50 [18] was 93.4 nM. The IC50 [19] was 213 nM, the IC50 [20] was 64.2 nM and the IC50 [21] was 350 nM. The Activity (NIH3T3 [22]) was “Active”, the IC50 [23] was greater than 1000 nM and the inhibition [24] was “Dose-dependent effect”. For the same molecule, the IC50 [25] was 75.4 nM, the IC50 (cells [26]) was 22.9 nM and the inhibition in vivo at 20 mg/kg [27] was 102%. The inhibition in vivo at 40 mg/kg [28] was 87.3%, the IC50 (cells [29]) was 43.3 nM and the Activity (NIH3T3 [30]) was “Active”. The IC50 [31] was 402 nM, the Activity (NIH3T3 [32]) was “Active” and the inhibition [33] was “Dose-dependent effect”. For the same molecule, the IC50 [34] was greater than 1000 nM, the IC50 [35] was 71.9 nM and the IC50 [36] was greater than 1000 nM. The Activity (Mus musculus) was “Non-toxic”, the IC50 [37] was greater than 1000 nM and the IC50 [38] was 159 nM.

In the case of `CCc1cc2c(cc1N1CCC(N3CCOCC3)CC1)C(C)(C)c1[nH]c3cc(C#N)ccc3c1C2=O` [ALECTINIB], the IC50 (cells [2]) is reported as 15 nM, the Activity (NIH3T3 [39]) is reported as “Active” and the IC50 (cells [7]) is reported as 132 nM. The IC50 (cells [10]) was 32.3 nM, the IC50 (cells [15]) was 20.5 nM and the IC50 (cells [26]) was 17.9 nM. For the same molecule, the IC50 (cells [29]) was 17.4 nM, the Activity (NIH3T3 [40]) was “Active” and the inhibition in vivo at 50 mg/kg (animal or person [41]) was 83.5%. It also gave an inhibition in vivo at 50 mg/kg (animal or person [42]) of 103%.
